What was measured:
Rattus norvegicus [1] = experiment: Total drug recovery in bile duct-cannulated Sprague-Dawley rat at 5 mg/kg, iv administered for 30 mins during 0 to 12 hrs time interval by radio analysis; assay type: ADME, organism-based; design: dose 5 mg/kg, dosed compound name [14C]LY2090314, route intravenous; conditions: in vivo
Rattus norvegicus [2] = experiment: Total drug recovery in bile duct-cannulated Sprague-Dawley rat at 5 mg/kg, iv administered for 30 mins during 0 to 168 hrs time interval by radio analysis; assay type: ADME, organism-based; design: dose 5 mg/kg, dosed compound name [14C]LY2090314, route intravenous; conditions: in vivo
[3] = Plasma protein binding in beagle dog; assay type: ADME, cell-free, Canis lupus familiaris; design: dosed compound name [14C]LY2090314; conditions: read-out: PPB
Plasma [4] = experiment: Plasma concentration in beagle dog at Tmax; assay type: ADME, cell-free, Canis lupus familiaris; design: dosed compound name [14C]LY2090314
[5] = Drug recovery in Sprague-Dawley rat feces at 5 mg/kg, iv administered for 30 mins during 48 hrs time interval by radio analysis; assay type: ADME, organism-based; design: dose 5 mg/kg, dosed compound name [14C]LY2090314, route intravenous; conditions: in vivo
[6] = Drug recovery in bile duct-cannulated Sprague-Dawley rat assessed as radioactivity in bile during 0 to 12 hrs at 5 mg/kg, iv for 30 mins; assay type: ADME, organism-based; design: dose 5 mg/kg, dosed compound name [14C]LY2090314, route intravenous; conditions: in vivo
[7] = Volume of distribution at steady state in Sprague-Dawley rat at 5 mg/kg, iv administered for 30 mins; assay type: ADME, organism-based; design: dose 5 mg/kg, dosed compound name [14C]LY2090314, route intravenous; conditions: in vivo, read-out: Vdss
Rattus norvegicus [8] = experiment: Drug recovery in Sprague-Dawley rat cage at 5 mg/kg, iv administered for 30 mins during 0 to 24 hrs time interval by radio analysis; assay type: ADME, organism-based; design: dose 5 mg/kg, dosed compound name [14C]LY2090314, route intravenous; conditions: in vivo
[9] = Drug recovery in Sprague-Dawley rat carcass at 5 mg/kg, iv administered for 30 mins during 0 to 168 hrs time interval by radio analysis; assay type: ADME, organism-based; design: dose 5 mg/kg, dosed compound name [14C]LY2090314, route intravenous; conditions: in vivo
[10] = Cmax in beagle dog at 5 mg/kg, iv administered for 30 mins; assay type: ADME, organism-based, Canis lupus familiaris; design: dose 5 mg/kg, dosed compound name [14C]LY2090314, route intravenous; conditions: in vivo
[11] = Tmax in beagle dog at 5 mg/kg, iv administered for 30 mins; assay type: ADME, organism-based, Canis lupus familiaris; design: dose 5 mg/kg, dosed compound name [14C]LY2090314, route intravenous; conditions: in vivo
Canis familiaris [12] = experiment: Cmax in beagle dog assessed as total radioactivity at 5 mg/kg, iv administered for 30 mins; assay type: ADME, organism-based, Canis lupus familiaris; design: dose 5 mg/kg, dosed compound name [14C]LY2090314, route intravenous; conditions: in vivo, 0.5 h
Canis familiaris [13] = experiment: Clearance in beagle dog assessed as total radioactivity at 5 mg/kg, iv administered for 30 mins; assay type: ADME, organism-based, Canis lupus familiaris; design: dose 5 mg/kg, dosed compound name [14C]LY2090314, route intravenous; conditions: in vivo, 0.5 h
Rattus norvegicus [14] = experiment: Tmax in Sprague-Dawley rat assessed as total radioactivity at 5 mg/kg, iv administered for 30 mins; assay type: ADME, organism-based; design: dose 5 mg/kg, dosed compound name [14C]LY2090314, route intravenous; conditions: in vivo, 0.5 h
Rattus norvegicus [15] = experiment: Volume of distribution at steady state in Sprague-Dawley rat assessed as total radioactivity at 5 mg/kg, iv administered for 30 mins; assay type: ADME, organism-based; design: dose 5 mg/kg, dosed compound name [14C]LY2090314, route intravenous; conditions: in vivo, 0.5 h
[16] = AUC (0 to infinity) in Sprague-Dawley rat at 5 mg/kg, iv administered for 30 mins; assay type: ADME, organism-based; design: time infinity, dose 5 mg/kg, dosed compound name [14C]LY2090314, route intravenous; conditions: plasma
[17] = Drug recovery in beagle dog feces at 5 mg/kg, iv administered for 30 mins during 0 to 168 hrs time interval by radio analysis; assay type: ADME, organism-based, Canis lupus familiaris; design: dose 5 mg/kg, dosed compound name [14C]LY2090314, route intravenous; conditions: in vivo
[18] = Plasma protein binding in rat; assay type: ADME, cell-free; design: dosed compound name [14C]LY2090314; conditions: read-out: PPB (converted)
[19] = Drug recovery in bile duct-cannulated Sprague-Dawley rat assessed as radioactivity in bile during 0 to 24 hrs at 5 mg/kg, iv administered for 30 mins relative to dosed radioactivity; assay type: ADME, organism-based; design: dose 5 mg/kg, dosed compound name [14C]LY2090314, route intravenous; conditions: in vivo
[20] = Drug recovery in bile duct-intact Sprague-Dawley rat assessed as radioactivity in bile during 0 to 24 hrs at 5 mg/kg, iv administered for 30 mins relative to dosed radioactivity; assay type: ADME, organism-based; design: dose 5 mg/kg, dosed compound name [14C]LY2090314, route intravenous; conditions: in vivo
Plasma [21] = experiment: Drug metabolism in Mdr1a knockout Sprague-Dawley rat plasma at 5 mg/kg, iv administered for 30 mins; assay type: ADME, organism-based; design: dose 5 mg/kg, dosed compound name LY2090314, route intravenous; conditions: in vivo, 0.5 h
Plasma [22] = experiment: Drug metabolism in Bcrp knockout Sprague-Dawley rat plasma at 5 mg/kg, iv administered for 30 mins; assay type: ADME, organism-based; design: dose 5 mg/kg, dosed compound name LY2090314, route intravenous; conditions: in vivo, 0.5 h
Plasma [23] = experiment: Drug metabolism in Mrp2 knockout Sprague-Dawley rat plasma at 5 mg/kg, iv administered for 30 mins; assay type: ADME, organism-based; design: dose 5 mg/kg, dosed compound name LY2090314, route intravenous; conditions: in vivo, 0.5 h
[24] = Cmax in cancer patient at 20 mg for 60 mins treated 1/1 cycle/day; assay type: ADME, organism-based; design: dose 20 mg, dosed compound name LY2090314; conditions: human, in vivo
[25] = Cmax in cancer patient at 60 mg for 60 mins treated 1/1 cycle/day; assay type: ADME, organism-based; design: dose 60 mg, dosed compound name LY2090314; conditions: human, in vivo
[26] = Cmax in cancer patient at 80 mg for 60 mins treated 1/1 cycle/day; assay type: ADME, organism-based; design: dose 80 mg, dosed compound name LY2090314; conditions: human, in vivo
[27] = Cmax in cancer patient at 120 mg for 60 mins treated 1/1 cycle/day; assay type: ADME, organism-based; design: dose 120 mg, dosed compound name LY2090314; conditions: human, in vivo
[28] = Cmax in cancer patient at 20 mg for 60 mins treated 2/1 cycle/day; assay type: ADME, organism-based; design: dose 20 mg, dosed compound name LY2090314; conditions: human, in vivo
[29] = Cmax in cancer patient at 80 mg for 60 mins treated 1/8 cycle/day; assay type: ADME, organism-based; design: dose 80 mg, dosed compound name LY2090314; conditions: human, in vivo
[30] = Tmax in cancer patient at 40 mg for 60 mins treated 1/1 cycle/day; assay type: ADME, organism-based; design: dosed compound name LY2090314; conditions: human, in vivo
[31] = Tmax in cancer patient at 120 mg for 60 mins treated 1/1 cycle/day; assay type: ADME, organism-based; design: dosed compound name LY2090314; conditions: human, in vivo
[32] = Tmax in cancer patient at 10 mg for 60 mins treated 2/1 cycle/day; assay type: ADME, organism-based; design: dosed compound name LY2090314; conditions: human, in vivo
[33] = Half life in cancer patient at 60 mg for 60 mins treated 1/8 cycle/day; assay type: ADME, organism-based; design: dosed compound name LY2090314; conditions: human, in vivo
[34] = Drug recovery in bile duct-intact Sprague-Dawley rat assessed as radioactivity in feces during 0 to 24 hrs at 5 mg/kg, iv for 30 mins; assay type: ADME, organism-based; design: dose 5 mg/kg, dosed compound name [14C]LY2090314, route intravenous; conditions: in vivo
[35] = AUC (0 to infinity) in cancer patient at 60 mg for 60 mins treated 1/8 cycle/day; assay type: ADME, organism-based; design: dose 60 mg, time infinity, dosed compound name LY2090314; conditions: human, plasma
[36] = AUC (0 to infinity) in cancer patient at 120 mg for 60 mins treated 1/8 cycle/day; assay type: ADME, organism-based; design: dose 120 mg, time infinity, dosed compound name LY2090314; conditions: human, plasma
[37] = Clearance in cancer patient at 40 mg for 60 mins treated 1/1 cycle/day; assay type: ADME, organism-based; design: dosed compound name LY2090314; conditions: human, in vivo
[38] = Clearance in cancer patient at 120 mg for 60 mins treated 1/1 cycle/day; assay type: ADME, organism-based; design: dosed compound name LY2090314; conditions: human, in vivo
[39] = Clearance in cancer patient at 20 mg for 60 mins treated 2/1 cycle/day; assay type: ADME, organism-based; design: dosed compound name LY2090314; conditions: human, in vivo
[40] = Clearance in cancer patient at 120 mg for 60 mins treated 1/8 cycle/day; assay type: ADME, organism-based; design: dosed compound name LY2090314; conditions: human, in vivo
[41] = Volume of distribution at steady state in cancer patient at 10 mg for 60 mins treated 1/1 cycle/day; assay type: ADME, organism-based; design: dosed compound name LY2090314; conditions: human, in vivo, read-out: Vdss
[42] = Volume of distribution at steady state in cancer patient at 20 mg for 60 mins treated 1/1 cycle/day; assay type: ADME, organism-based; design: dosed compound name LY2090314; conditions: human, in vivo, read-out: Vdss
[43] = Volume of distribution at steady state in cancer patient at 40 mg for 60 mins treated 1/1 cycle/day; assay type: ADME, organism-based; design: dosed compound name LY2090314; conditions: human, in vivo, read-out: Vdss
[44] = Volume of distribution at steady state in cancer patient at 120 mg for 60 mins treated 1/1 cycle/day; assay type: ADME, organism-based; design: dosed compound name LY2090314; conditions: human, in vivo, read-out: Vdss
[45] = Half life in cancer patient at 20 mg for 60 mins treated 1/1 cycle/day; assay type: ADME, organism-based; design: dosed compound name LY2090314; conditions: human, in vivo
[46] = Half life in cancer patient at 40 mg for 60 mins treated 1/8 cycle/day; assay type: ADME, organism-based; design: dosed compound name LY2090314; conditions: human, in vivo
[47] = AUC (0 to infinity) in cancer patient at 20 mg for 60 mins treated 1/1 cycle/day; assay type: ADME, organism-based; design: dose 20 mg, time infinity, dosed compound name LY2090314; conditions: human, plasma

Radiolabel recovery (Rattus norvegicus [1]): 87%
Radiolabel recovery (Rattus norvegicus [2]): 94.9%
fraction unbound [3]: 0.01
Compound recovery (Plasma [4]): 82.8%
Radiolabel recovery [5]: 65.8%
Radiolabel recovery [6]: 1.78%
Vd [7]: 1.19 L/kg
Radiolabel recovery (Rattus norvegicus [8]): 0.07%
Radiolabel recovery [9]: 0.07%
Cmax [10]: 5090 ng/mL
Tmax [11]: 30 min
Cmax (Canis familiaris [12]): 7240 ng/mL
CL (Canis familiaris [13]): 5.62 mL/min/kg
Tmax (Rattus norvegicus [14]): 30 min
Vdss (Rattus norvegicus [15]): 4.489 L/kg
AUC(0-inf) [16]: 1260 ng·h/mL
Radiolabel recovery [17]: 69.2%
fraction unbound [18]: 0.02
Radiolabel recovery [19]: 91.8%
Radiolabel recovery [20]: 1.8%
Drug metabolism (Plasma [21]): metabolite_not_detected
Drug metabolism (Plasma [22]): metabolite_not_detected
Drug metabolism (Plasma [23]): metabolite_not_detected
Cmax [24]: 246 ng/mL
Cmax [25]: 881 ng/mL
Cmax [26]: 898 ng/mL
Cmax [27]: 1700 ng/mL
Cmax [28]: 271 ng/mL
Cmax [29]: 1150 ng/mL
Tmax [30]: 58.8 min
Tmax [31]: 58.8 min
Tmax [32]: 55.2 min
half-life [33]: 201 min
Radiolabel recovery [34]: 2.43%
AUC(0-inf) [35]: 1570 ng·h/mL
AUC(0-inf) [36]: 2190 ng·h/mL
clearance [37]: 688 mL/min
clearance [38]: 605 mL/min
clearance [39]: 825 mL/min
clearance [40]: 638 mL/min
Vd [41]: 89.7 L
Vd [42]: 77.5 L
Vd [43]: 79.3 L
Vd [44]: 82.1 L
half-life [45]: 110 min
half-life [46]: 161 min
AUC(0-inf) [47]: 427 ng·h/mL
SMILES: O=C1NC(=O)C(c2cnc3ccccn23)=C1c1cn2c3c(cc(F)cc13)CN(C(=O)N1CCCCC1)CC2 [LY-2090314]

— ChEMBL document CHEMBL3526091, “Pharmacokinetics, metabolism, and excretion of the glycogen synthase kinase-3 inhibitor LY2090314 in rats, dogs, and humans: a case study in rapid clearance by extensive metabolism with low circulating metabolite exposure” (Drug Metab Dispos, 2013)
